Experimental data taken from patent US8362031B2, “Lonidamine analogues and treatment of polycystic kidney disease” (University of Kansas, priority 2004, dated 2013).

Columns and labels:
Cdk4 = assay: Western blot of treated ADPKD cells; assay type: cell-based, human; conditions: 50 uM
Description: (§1) Gamendazole (GMZ) was tested to determine if treatment decreases Hsp90 client protein levels in ADPKD cells. Briefly, ADPKD cells were treated with 50 μM GMZ for 24, 48 or 72 hours. Proteins from 20 μg total cell lysate were separated by SDS-PAGE, transferred to a PVDF membrane and probed with antibodies against the Hsp90 client proteins ErbB2 (185 kD), and cdk4 (34 kD).

ErbB2 = assay: Western blot of treated ADPKD cells; assay type: cell-based, human; conditions: 50 uM
Description: as §1

Male Long Evans rats = assay: In vivo antispermatogenic testing in Long Evans rats
[1] = system: ID8 cells (ovarian cancer); assay: ID8 cell growth in vitro; assay type: cell-based
Description: When RC-MC-110 is added to a variety of cancer cells: ovarian (ID8), taxol-resistant ovarian (ID8), prostate (LNCaP and PC-3), kidney (293).

Row | Structure (SMILES) | levels of the Hsp90 client protein Cdk4 (Cdk4) | levels of the Hsp90 client protein ErbB2 (ErbB2) | Mortality (25 mg/kg) (Male Long Evans rats; 25 mg/kg single i.p. injection, […]) | Response 25 mg/kg (Male Long Evans rats; 25 mg/kg single i.p. injection, animals responding out of animals surviving, five days following injection) | Mortality (200 mg/kg) (Male Long Evans rats; 200 mg/kg single i.p. injection, […]) | Response 200 mg/kg (Male Long Evans rats; 200 mg/kg single i.p. injection, animals responding out of animals surviving, five days following injection) | Sensitivity of ID8 cell growth, compared with lonidamine [1]
1 | O=C(O)CCc1nn(Cc2ccc(Cl)cc2Cl)c2cc(C(F)(F)F)ccc12 [GMZ, 3-[1-(2,4-dichlorobenzyl)-6-trifluoromethyl-1H-indazol-3-yl]-propionic acid] | decreased levels | decreased levels | – | – | – | – | –
2 | O=C(O)/C=C/c1nn(Cc2ccc(Cl)cc2Cl)c2cc(C(F)(F)F)ccc12 [RC-MC-110, trans 3-[1-(2,4-dichlorobenzyl)-6-trifluoromethyl-1H-indazol-3-yl]-acrylic acid] | – | – | 0/5 | 5/5 | 3/5 | 2/2 | more sensitive to RC-MC-110 than lonidamine
